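A five-concentration, 48-hour dose response in 96-well plates underlies each endpoint, interpolated linearly between surrounding concentrations. TGI: total growth inhibition.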
Columns and labels:
Experiment in all cases: NCI tumour cell line growth inhibition, 48 h
[1] = test system: HCC-2998 colon
[2] = test system: HCT-15 colon
[3] = test system: RXF-631 renal
[4] = test system: COLO 205 colon
[5] = test system: SNB-75 CNS
[6] = test system: SK-MEL-5 melanoma
[7] = test system: IGROV1 ovarian
[8] = test system: LOX IMVI melanoma
[9] = test system: 786-0 renal
[10] = test system: DMS 114 small cell lung
[11] = test system: ACHN renal
[12] = test system: A549 NSCLC
[13] = test system: HOP-62 NSCLC
[14] = test system: SK-MEL-2 melanoma
[15] = test system: LXFL 529 NSCLC
[16] = test system: SW-620 colon
[17] = test system: OVCAR-3 ovarian
[18] = test system: EKVX NSCLC
[19] = test system: NCI-H522 lung
[20] = test system: A498 renal
[21] = test system: UACC-257 melanoma
[22] = test system: RPMI-8226 leukemia
[23] = test system: K-562 leukemia
[24] = test system: HL-60(TB) leukemia
[25] = test system: SK-OV-3 ovarian
[26] = test system: MALME-3M melanoma
[27] = test system: TK-10 renal
[28] = test system: SF-295 CNS
[29] = test system: OVCAR-8 ovarian
[30] = test system: UACC-62 melanoma
[31] = test system: MOLT-4 leukemia
[32] = test system: SF-268 CNS
[33] = test system: OVCAR-5 ovarian
[34] = test system: SK-MEL-28 melanoma
[35] = test system: HT29 colon
[36] = test system: HOP-18 NSCLC
[37] = test system: NCI-H23 lung
[38] = test system: DMS 273 small cell lung
[39] = test system: CCRF-CEM leukemia
[40] = test system: XF 498 CNS
[41] = test system: KM12 colon
[42] = test system: M19-MEL melanoma
[43] = test system: SN12C renal
[44] = test system: SF-539 CNS
[45] = test system: SR leukemia
[46] = test system: DLD-1 colon
[47] = test system: KM20L2 colon
[48] = test system: NCI-H226 lung
[49] = test system: U251 CNS
[50] = test system: SNB-78 CNS
[51] = test system: OVCAR-4 ovarian
[52] = test system: M14 melanoma
[53] = test system: HOP-92 NSCLC
[54] = test system: HCT-116 colon
[55] = test system: UO-31 renal
[56] = test system: SNB-19 CNS
[57] = test system: CAKI-1 renal
[58] = test system: RXF 393 renal
[59] = test system: NCI-H460 lung
[60] = test system: P388/ADR leukemia
[61] = test system: MDA-MB-231 breast
[62] = test system: HS 578T breast
[63] = test system: PC-3 prostate
[64] = test system: MDA-MB-435
[65] = test system: MDA-N
[66] = test system: T-47D breast
[67] = test system: BT-549 breast
[68] = test system: MCF7 breast
[69] = test system: NCI/ADR-RES ovarian
[70] = test system: P388 leukemia
[71] = test system: SN12K1 renal
[72] = test system: DU-145 prostate

Measured: TGI

O=C(/C=C/c1c(O)ccc2ccccc12)c1ccccc1
> 100 µM: [1] | [2] | [3] | [4] | [6] | [7] | [9] | [10] | [11] | [12] | [13] | [14] | [15] | [17] | [18] | [19] | [20] | [21] | [23] | [24] | [25] | [26] | [27] | [28] | [29] | [30] | [31] | [32] | [33] | [34] | [36] | [37] | [38] | [39] | [40] | [41] | [42] | [43] | [44] | [45] | [46] | [47] | [48] | [49] | [50] | [51] | [52] | [53] | [54] | [55] | [56] | [57] | [58] | [59]
83.7 µM: [16]
30.2 µM: [35]
80.6 µM: [22]
44.9 µM: [8]
4.52 µM: [5]

Nc1ncn(C2CC(O)C(CO)O2)c(=O)n1 (stereo unspecified)
158 µM: [44]
370 µM: [29]
232 µM: [14]
> 260 µM: [36]
> 141 µM: [45]
247 µM: [28]
265 µM: [30]
373 µM: [16]
> 324 µM: [34]
> 281 µM: [41]
> 349 µM: [56]
> 331 µM: [48]
7.2 µM: [65]
> 375 µM: [1] | [8] | [10] | [11] | [12] | [22] | [26] | [27] | [68] | [31] | [32] | [33] | [35] | [37] | [69] | [42] | [43] | [71] | [46] | [47] | [50] | [72] | [51] | [52] | [53] | [54] | [55] | [57] | [59]
103 µM: [24]
> 80.8 µM: [40]
254 µM: [6]
372 µM: [7]
182 µM: [25]
131 µM: [21]
> 332 µM: [20] | [23]
162 µM: [17]
> 307 µM: [49]
218 µM: [19]
> 293 µM: [18]
> 178 µM: [67]
> 288 µM: [5]
> 298 µM: [4]
23.5 µM: [62]
350 µM: [58]
> 98.3 µM: [64]
> 319 µM: [13]
226 µM: [60]
> 261 µM: [39]
> 343 µM: [61]
> 204 µM: [63]
> 302 µM: [2]
142 µM: [70]
> 299 µM: [66]
> 256 µM: [9]

FC(F)(F)c1nc(-c2ccccc2)oc1Sc1nnc(Sc2oc(-c3ccccc3)nc2C(F)(F)F)s1
> 74 µM: [50]
49.3 µM: [7] | [58]
> 64.5 µM: [23]
26.7 µM: [40]
24.9 µM: [8]
63.4 µM: [53]
19.7 µM: [24]
34.4 µM: [26]
34.8 µM: [39]
> 57.8 µM: [42]
> 74.6 µM: [22]
17 µM: [31]
41 µM: [45]
> 64.6 µM: [15]
59.8 µM: [29]
21.7 µM: [10]
> 78.7 µM: [57]
> 65.8 µM: [30]
> 80.7 µM: [18]
> 84.1 µM: [3]
> 69.8 µM: [4]
74 µM: [9]
> 93.8 µM: [34]
67.3 µM: [37]
28 µM: [51] | [52]
> 59 µM: [2]
> 100 µM: [1] | [5] | [11] | [12] | [13] | [14] | [16] | [20] | [21] | [25] | [27] | [28] | [32] | [33] | [35] | [36] | [38] | [41] | [43] | [44] | [46] | [47] | [54] | [55] | [56] | [59]
36.8 µM: [19]
33.9 µM: [6]
> 57.2 µM: [49]
> 57.7 µM: [17]

CCOC(=O)CCn1[nH]c(=O)c(Cl)c(Cl)c1=O
> 100 µM: [1] | [2] | [3] | [4] | [5] | [6] | [7] | [8] | [9] | [10] | [11] | [12] | [13] | [14] | [15] | [16] | [17] | [18] | [19] | [20] | [21] | [23] | [24] | [25] | [26] | [27] | [28] | [29] | [30] | [32] | [33] | [34] | [35] | [36] | [37] | [38] | [39] | [40] | [42] | [43] | [46] | [47] | [48] | [49] | [50] | [51] | [52] | [53] | [54] | [55] | [56] | [57] | [58] | [59]

CN(C)C(c1ccccc1)C(O)c1ccccc1 (stereo unspecified)
> 100 µM: [1] | [2] | [3] | [4] | [5] | [7] | [8] | [9] | [10] | [11] | [12] | [13] | [14] | [15] | [16] | [17] | [18] | [19] | [20] | [21] | [22] | [23] | [24] | [25] | [26] | [27] | [28] | [30] | [31] | [32] | [34] | [35] | [36] | [37] | [38] | [39] | [40] | [41] | [42] | [43] | [44] | [46] | [47] | [48] | [49] | [50] | [52] | [55] | [56] | [57] | [58] | [59]

COc1ccc2c3c(coc13)C(CCC(=O)O)CC2 (stereo unspecified)
> 100 µM: [1] | [2] | [3] | [4] | [5] | [6] | [7] | [8] | [9] | [10] | [11] | [12] | [13] | [15] | [16] | [17] | [18] | [20] | [21] | [25] | [27] | [28] | [29] | [30] | [34] | [35] | [36] | [37] | [38] | [40] | [42] | [43] | [44] | [46] | [47] | [49] | [50] | [51] | [52] | [54] | [56] | [57] | [58] | [59]

From PubChem BioAssay (NCI)
